What was measured:
[1] = Emulsion formation with different organic solvents; assay type: physicochemical; details: 50 parts solvent, 100 parts epoxy resin, 14 parts surfactant, 150 parts deionized water
Method: A series of emulsions were prepared using 100 parts of an epoxy resin (diglycidylether of bisphenol A) having an epoxy equivalent weight of 2,000-2,500, 50 parts of a solvent, 14 parts of surfactant having the formula [drawing 1] wherein a+ c is about 190-200, b is about 60-70, and average molecular weight is about 12,500, and 150 parts of deionized water. In each emulsion a different solvent was used. Each emulsion, as well as other emulsions whose formulations are described in this specification, was prepared using the following general procedure:
The epoxy resin was dissolved in the solvent by heating at 130° C. with agitation. The resin solution was then cooled to about 65° C. and placed in high speed dispersing equipment. The surfactant was added. (In formulations wherein the emulsion coating was to be baked, cross-linking catalyst and curing agent, as defined hereinafter, were also added at this point.) Part of the water (about 100 parts) was then slowly added under high speed agitation (approximately 2,000 ft./min. peripheral speed) to pass the inversion point. Thereupon the agitation speed was slowed down to about 1,000 ft./min. and the balance of the water was added.
In each emulsion, a different organic solvent was used. […] Each emulsion formed was applied, by wire wound bar application, to a test panel of lubricated electrolytic tinplated steel. […]

[2] = Solubility of solvents in water and of water in solvents; assay type: physicochemical; details: for Solubility, Solvent in H2 O: solvent in water; for Solubility, H2 O in Solvent: water in solvent

Compound | emulsion formation [1] | Solubility, Solvent in H2 O [2] | Solubility, H2 O in Solvent [2]
OCCOCCOc1ccccc1 [diethylene glycol monophenyl ether] | an emulsion could not be formed | – | –
COCCO [Methyl Cellosolve] | – | .infin. | .infin.
CC(C)CC(=O)CC(C)C [diisobutyl ketone] | an emulsion could not be formed | – | –

More lines, now with the values ahead:

emulsion formation [1] | Solubility, Solvent in H2 O [2] | Solubility, H2 O in Solvent [2] | Compound
– | 0.99 wt. % | 18.8 wt. % | CCCCCCOCCO [Hexyl Cellosolve, 2-Hexoxyethanol]
– | .infin. | .infin. | CCOCCO [Ethyl Cellosolve]

Source: patent publication US4026857A, “Epoxy emulsion water-based coating” (priority 1975, dated 1977)
